Laboratory results published in article PMC9421653 (Journal of Medicinal Chemistry, 2022).
Entries after “also recorded” stand apart in the source; their conditions may differ.

How the values were obtained:
[1] = test system: mouse GPR84; conditions: cited from earlier work
[2] = biological target: T1, human FFAR2 (Homo sapiens, UniProt O15552); test: [35S]GTPγS binding, block of C3 (propionate) at FFAR2; type: biochemical; conditions: tested at 10 μM
T1 construct: expressed in transfected cells; host or cells: Flp-In T-REx 293 cells, induced; membrane preparations
T1 sequence (O15552 1-330): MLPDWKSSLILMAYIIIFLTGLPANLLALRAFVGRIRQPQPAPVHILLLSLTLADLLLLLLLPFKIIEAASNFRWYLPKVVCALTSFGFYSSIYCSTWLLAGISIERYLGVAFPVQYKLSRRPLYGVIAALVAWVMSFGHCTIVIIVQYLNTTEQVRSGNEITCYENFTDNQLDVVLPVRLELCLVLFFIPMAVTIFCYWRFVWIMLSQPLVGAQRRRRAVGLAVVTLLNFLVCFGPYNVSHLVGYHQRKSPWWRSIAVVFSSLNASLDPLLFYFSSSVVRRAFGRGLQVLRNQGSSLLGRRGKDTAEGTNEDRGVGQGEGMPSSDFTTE

[3] = biological target: T2, human FFAR3 (Homo sapiens, UniProt O14843); test: [35S]GTPγS binding, block of C3 (propionate) at FFAR3; type: biochemical; conditions: tested at 10 μM
T2 construct: expressed in transfected cells; host or cells: Flp-In T-REx 293 cells, induced; membrane preparations
T2 sequence (O14843 1-346): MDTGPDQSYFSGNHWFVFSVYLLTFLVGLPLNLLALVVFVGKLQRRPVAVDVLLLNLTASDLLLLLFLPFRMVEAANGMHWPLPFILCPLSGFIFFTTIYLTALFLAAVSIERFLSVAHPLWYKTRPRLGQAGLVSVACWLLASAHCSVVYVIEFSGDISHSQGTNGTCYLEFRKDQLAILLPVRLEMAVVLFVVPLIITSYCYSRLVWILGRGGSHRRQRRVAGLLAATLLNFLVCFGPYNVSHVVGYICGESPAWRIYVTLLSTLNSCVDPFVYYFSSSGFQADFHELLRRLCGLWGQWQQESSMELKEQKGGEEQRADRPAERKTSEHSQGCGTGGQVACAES

[4] = biological target: T3, human GPR84 (Homo sapiens, UniProt P04899+Q9NQS5); test: biochemical; type: biochemical; conditions: [35S]GTPγS assay; negative log of the IC50 in molar; mean ± SEM
T3 construct: expressed in transfected cells; host or cells: Flp-In T-REx 293 cells, doxycycline-induced; membrane preparations

[5] = biological target: GPR84-Gαi2 fusion protein, Phe335Ala (Homo sapiens, UniProt Q9NQS5, F335A); test: [35S]GTPγS binding, GPR84-Gαi2 fusion protein, Phe335Ala; conditions: Phe335 to Ala, versus wild type
[6] = biological target: GPR84-Gαi2 fusion protein, Trp360Ala (Homo sapiens, UniProt Q9NQS5, W360A); test: [35S]GTPγS binding, GPR84-Gαi2 fusion protein, Trp360Ala; conditions: Trp360 to Ala, versus wild type
[7] = biological target: GPR84-Gαi2 fusion protein, Phe101Ala (Homo sapiens, UniProt Q9NQS5, F101A); test: [35S]GTPγS binding, GPR84-Gαi2 fusion protein, Phe101Ala; conditions: Phe101 to Ala, versus wild type
Chain of GPR84-Gαi2 fusion protein, Phe101Ala (Q9NQS5 whole entry F101A, the tested form may be a part): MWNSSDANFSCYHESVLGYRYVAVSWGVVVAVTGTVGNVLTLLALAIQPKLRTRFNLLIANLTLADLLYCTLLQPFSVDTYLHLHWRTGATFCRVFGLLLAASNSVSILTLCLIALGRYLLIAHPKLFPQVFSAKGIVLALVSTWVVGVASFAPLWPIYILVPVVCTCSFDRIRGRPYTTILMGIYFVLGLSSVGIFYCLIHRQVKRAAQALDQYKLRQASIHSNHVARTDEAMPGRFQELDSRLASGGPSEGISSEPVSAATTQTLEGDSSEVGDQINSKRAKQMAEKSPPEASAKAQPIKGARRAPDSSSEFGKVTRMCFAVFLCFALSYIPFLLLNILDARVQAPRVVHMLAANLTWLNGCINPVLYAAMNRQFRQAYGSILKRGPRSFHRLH
Chain of GPR84-Gαi2 fusion protein, Phe101Ala (P04899 2-355 partner): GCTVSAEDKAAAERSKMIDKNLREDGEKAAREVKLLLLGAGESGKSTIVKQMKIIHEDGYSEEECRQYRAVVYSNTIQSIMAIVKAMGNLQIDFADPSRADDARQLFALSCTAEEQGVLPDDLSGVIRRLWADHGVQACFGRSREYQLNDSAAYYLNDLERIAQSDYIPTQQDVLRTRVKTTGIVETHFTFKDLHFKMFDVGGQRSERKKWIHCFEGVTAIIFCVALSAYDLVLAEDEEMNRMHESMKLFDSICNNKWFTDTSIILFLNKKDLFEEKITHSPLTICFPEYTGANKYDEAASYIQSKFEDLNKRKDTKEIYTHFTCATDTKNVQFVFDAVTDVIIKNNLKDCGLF

Chain of GPR84-Gαi2 fusion protein, Phe335Ala (Q9NQS5 whole entry F335A, the tested form may be a part): as the sequence (Q9NQS5 whole entry F101A, the tested form may be a part) above, with A101F, F335A counted along it
Chain of GPR84-Gαi2 fusion protein, Phe335Ala (P04899 2-355 partner): as the sequence (P04899 2-355 partner) above
T3 sequence (Q9NQS5+P04899 fused): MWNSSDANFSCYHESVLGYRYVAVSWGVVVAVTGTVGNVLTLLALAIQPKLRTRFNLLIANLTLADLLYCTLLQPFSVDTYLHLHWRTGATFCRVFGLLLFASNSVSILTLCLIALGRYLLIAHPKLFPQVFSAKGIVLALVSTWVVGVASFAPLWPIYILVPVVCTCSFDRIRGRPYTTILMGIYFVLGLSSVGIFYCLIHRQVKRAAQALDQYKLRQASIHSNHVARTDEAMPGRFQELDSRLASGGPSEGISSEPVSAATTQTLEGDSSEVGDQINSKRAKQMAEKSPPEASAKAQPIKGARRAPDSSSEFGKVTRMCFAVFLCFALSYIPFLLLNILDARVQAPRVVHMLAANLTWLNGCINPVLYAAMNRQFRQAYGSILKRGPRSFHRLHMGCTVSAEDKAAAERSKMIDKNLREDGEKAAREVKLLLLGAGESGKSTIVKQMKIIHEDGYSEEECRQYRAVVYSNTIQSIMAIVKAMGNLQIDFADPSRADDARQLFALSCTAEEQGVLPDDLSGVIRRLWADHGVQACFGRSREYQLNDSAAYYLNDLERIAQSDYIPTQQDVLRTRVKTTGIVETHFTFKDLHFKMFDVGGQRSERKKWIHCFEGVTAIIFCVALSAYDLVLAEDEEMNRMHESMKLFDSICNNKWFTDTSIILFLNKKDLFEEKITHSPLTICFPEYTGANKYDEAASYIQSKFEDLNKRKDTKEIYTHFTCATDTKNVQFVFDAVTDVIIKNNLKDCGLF
Chain of GPR84-Gαi2 fusion protein, Trp360Ala (Q9NQS5 whole entry W360A, the tested form may be a part): as the sequence (Q9NQS5 whole entry F101A, the tested form may be a part) above, with A101F, W360A counted along it
Chain of GPR84-Gαi2 fusion protein, Trp360Ala (P04899 2-355 partner): as the sequence (P04899 2-355 partner) above

COc1ccc(-c2nnc(Cc3c[nH]c4ccccc34)nc2-c2ccc(OC)cc2)cc1 [Compound 1, 3-((5,6-Bis(4-methoxyphenyl)-1,2,4-triazin-3-yl)methyl)-1H-indole]
antagonism of mouse GPR84 [1]: unable to antagonize
block of the actions of the C3 fatty acid propionate at FFAR2 [2]: no ability to block; also recorded: did not block
block of the actions of the C3 fatty acid propionate at FFAR3 [3]: no ability to block; also recorded: did not block
GTPγS (pIC50) [4]: 7.93 ± 0.21
affinity to block effects of the allosteric agonist PSB-16671 [5]: substantial loss of affinity
affinity to block effects of the allosteric agonist PSB-16671 [6]: substantial loss of affinity
affinity to block effects of the allosteric agonist PSB-16671 [7]: substantial loss of affinity
